A short description of this data set: Solubility of aripiprazole in n-propanol. Type of data set: physicochemical. Particulars: organic solvent or mixture; solvent n-propanol (n-PrOH). On the procedure: The solubility of aripiprazole in n-PrOH is low, only about 7 mg/ml. Therefore, a highly saturated solution could be produced with a very low solution concentration. At such low concentrations, the number of nucleation sites within the nozzle is low enough to prevent substantial blockages. When processing n-PrOH solutions at […], pressure fluctuations were reduced to a more satisfactory level of <35 bar. […] Water was again incorporated into the solution, in an attempt to produce the monohydrate. […] The sample was, however, anhydrous.

The solubility is how much of the substance goes into solution per volume.

Structures are written as SMILES. In brackets after ≈: the same amount, converted by molar mass.

As to `O=C1CCc2ccc(OCCCCN3CCN(c4cccc(Cl)c4Cl)CC3)cc2N1` [aripiprazole, 7-(4-[4-(2,3-dichloropheny)-1-piperazinyl]-butoxy)-3,4-dihydro carbostyril], the solubility was about 7000 µg/mL (≈ 15.6 mM).

For the origin of these results see patent US7507823B2, “Process of making aripiprazole particles” (Bristol-Myers Squibb Company, priority 2004, dated 2009).
